According to patent US20260347361A1, “LRRK2 INHIBITORS AND USES THEREOF” (NEURON23, INC, priority 2022, published 2026):

Target: T1, wt human LRRK2 (Homo sapiens, UniProt Q5S007)
T1 construct: wt human LRRK2, catalytic site, catalytic site (ThermoFisher/USA); purchased ThermoFisher
Experiment: TR-FRET LanthaScreen Tb Kinase Activity Assay, inhibition of LRRK2 kinase
Format: biochemical
Details: 2 nM wt human LRRK2, 400 nM fluorescein-ERM (LRRKtide) peptide, 38 µM ATP, 15 min pre-incubation, 120 min at room temperature
Description: In Table 2, activity is provided as the following: “+++”=IC50 less than 50 nM; “++”=IC50 between 50 nM and 200 nM; “+”=IC50> or =200 nM.
The compounds listed in Table 2 were tested for their inhibitory effect on LRRK2 kinase according to the following procedures.
The protocol for basic TR-FRET LanthaScreen Tb Kinase Activity Assay inhibitor studies were as follows. LanthaScreen Kinase Activity Assays (ThermoFisher/USA) to evaluate inhibitors were performed by addition of 100 nl of test compound in corresponding DMSO dilutions/5 μl of kinase/fluorescein-ERM(LRRKtide) peptide mixture, Compound & kinase were pre-incubated for 15 minutes, then 5 μl of ATP into 384 well small volume plates. After incubation for 120 minutes at room temperature, the detection reagents containing Tb-anti-pLRRKtide antibody were added to monitor phosphorylation level of peptide. Then, after 60 min minutes incubation at room temperature plates were read in Envision. Data analysis of emission ratios was according to LanthaScreen Tb Kinase Activity Assay protocol.
Kinase and assay components were adjusted to final concentrations according to the kit protocol. For LRRK2: 2 nM wt human LRRK2, catalytic site, catalytic site (ThermoFisher/USA), 400 nM peptide, 38 µM ATP in 1× Kinase Buffer A.
Basic protocol for TR-FRET LanthaScreen Tb Kinase Activity Assay inhibitor studies involved two steps:
Enzymatic step: Addition of […] of test compound in corresponding DMSO dilutions, 5 μL of kinase/substrate mixture, 5 μL of ATP into 384 well small volume plates. Incubation for 120 minutes at room temperature.
Detection step: Addition of 10 μL EDTA & antibody, read plate after 60 minutes. Data analysis of emission ratios according to KinEASE assay protocol.
Kinase and assay components were adjusted to final concentrations according to the kit protocol.

T1 sequence (Q5S007 970-2527 limits assumed): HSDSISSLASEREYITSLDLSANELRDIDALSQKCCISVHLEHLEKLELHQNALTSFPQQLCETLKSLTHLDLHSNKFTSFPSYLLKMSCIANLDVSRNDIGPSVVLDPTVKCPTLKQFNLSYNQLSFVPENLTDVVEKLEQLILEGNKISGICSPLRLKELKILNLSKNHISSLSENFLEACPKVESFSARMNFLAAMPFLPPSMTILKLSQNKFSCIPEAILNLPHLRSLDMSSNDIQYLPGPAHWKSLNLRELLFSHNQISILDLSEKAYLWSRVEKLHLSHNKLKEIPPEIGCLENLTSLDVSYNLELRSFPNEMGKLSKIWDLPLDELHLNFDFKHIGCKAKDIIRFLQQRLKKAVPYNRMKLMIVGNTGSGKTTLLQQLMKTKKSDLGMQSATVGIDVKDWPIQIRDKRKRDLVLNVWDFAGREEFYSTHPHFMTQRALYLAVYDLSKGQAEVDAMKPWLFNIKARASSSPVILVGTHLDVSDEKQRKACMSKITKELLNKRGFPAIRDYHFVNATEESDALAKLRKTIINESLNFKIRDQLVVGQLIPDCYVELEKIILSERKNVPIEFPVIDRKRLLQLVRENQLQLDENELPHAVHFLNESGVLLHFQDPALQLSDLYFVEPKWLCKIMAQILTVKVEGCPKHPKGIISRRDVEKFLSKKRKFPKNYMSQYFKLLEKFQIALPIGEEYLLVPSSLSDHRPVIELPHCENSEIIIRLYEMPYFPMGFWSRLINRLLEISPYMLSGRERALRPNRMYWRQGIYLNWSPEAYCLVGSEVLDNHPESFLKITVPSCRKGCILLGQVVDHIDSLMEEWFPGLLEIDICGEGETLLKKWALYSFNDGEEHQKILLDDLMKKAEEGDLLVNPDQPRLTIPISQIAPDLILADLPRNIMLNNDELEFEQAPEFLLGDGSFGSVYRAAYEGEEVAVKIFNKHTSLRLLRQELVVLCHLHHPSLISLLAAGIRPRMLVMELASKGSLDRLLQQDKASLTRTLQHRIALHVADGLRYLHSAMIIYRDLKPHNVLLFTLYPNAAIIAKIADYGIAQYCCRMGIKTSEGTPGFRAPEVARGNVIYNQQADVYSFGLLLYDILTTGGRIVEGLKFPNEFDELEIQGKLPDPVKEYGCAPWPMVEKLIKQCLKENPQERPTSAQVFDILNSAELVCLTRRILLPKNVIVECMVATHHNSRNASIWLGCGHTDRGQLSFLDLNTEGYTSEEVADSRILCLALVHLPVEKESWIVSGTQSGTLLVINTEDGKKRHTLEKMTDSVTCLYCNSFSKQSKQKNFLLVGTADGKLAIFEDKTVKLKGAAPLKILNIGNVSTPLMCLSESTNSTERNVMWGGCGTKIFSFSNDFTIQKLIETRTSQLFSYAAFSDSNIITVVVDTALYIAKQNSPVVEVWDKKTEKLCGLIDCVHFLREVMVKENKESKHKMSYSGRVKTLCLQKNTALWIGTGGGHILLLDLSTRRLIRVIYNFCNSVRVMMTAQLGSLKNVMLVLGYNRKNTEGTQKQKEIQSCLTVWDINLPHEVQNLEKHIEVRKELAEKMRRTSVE

Row | SMILES | IC50 [nM]
1 | Fc1cccc(F)c1C1=Nc2c(Cl)cnn2-c2cc(N3CCC4(CC3)COC4)ccc2N1 [7-[3-chloro-5-(2,6-difluorophenyl)-6H-pyrazolo[1,5-a][1,3,5]benzotriazepin-9-yl]-2-oxa-7-azaspiro[3.5]nonane] | < 50
2 | Fc1cccc(F)c1C1=Nc2c(Cl)cnn2-c2cc(N3C4CCC3COC4)ccc2N1 [8-[3-chloro-5-(2,6-difluorophenyl)-6H-pyrazolo [1,5-a][1,3, 5]benzotriazepin-9-yl]-3-oxa-8-azabicyclo [3.2.1]octane] | < 50
3 | Fc1cccc(F)c1C1=Nc2c(Cl)cnn2-c2cc(Br)ccc2N1 [9-bromo-3-chloro-5-(2,6-difluorophenyl)-6H-pyrazolo[1,5-a][1,3,5]benzotriazepine] | < 50
4 | Fc1cccc(F)c1C1=Nc2c(Cl)cnn2-c2cc(N3C[C@H]4C[C@@H]3CO4)ccc2N1 [(1R,4R)-5-[3-chloro-5-(2,6-difluorophenyl)-6H-pyrazolo[1,5-a][1,3,5]benzotriazepin-9-yl]-2-oxa-5-azabicyclo[2.2.1]heptane] | < 50
5 | Fc1cccc(F)c1C1=Nc2c(Cl)cnn2-c2cc(N3C[C@H]4CC[C@@H]3CO4)ccc2N1 [(1R,4R)-5-[3-chloro-5-(2,6-difluorophenyl)-6H-pyrazolo[1,5-a][1,3,5]benzotriazepin-9-yl]-2-oxa-5-azabicyclo[2.2.2]octane] | < 50
6 | Fc1cccc(F)c1C1=Nc2c(Cl)cnn2-c2cc(N3C[C@H]4C[C@@H]3CO4)ncc2N1 [(1R,4R)-5-[5-chloro-8-(2,6-difluorophenyl)-2,3,7,9,12-pentazatricyclo[8.4.0.02,6]tetradeca-1(10),3,5,7,11,13-hexaen-13-yl]-2-oxa-5-azabicyclo[2.2.1]heptane] | < 50
7 | Fc1cccc(F)c1C1=Nc2c(Cl)cnn2-c2cc(N3C[C@H]4CC[C@@H](C3)O4)ccc2N1 [(1R,5S)-3-[3-chloro-5-(2,6-difluorophenyl)-6H-pyrazolo[1,5-a][1,3,5]benzotriazepin-9-yl]-8-oxa-3-azabicyclo[3.2.1]octane] | < 50
8 | Fc1cccc(F)c1C1=Nc2c(Cl)cnn2-c2cc(N3C[C@@H]4C[C@H]3CO4)ccc2N1 [(1S,4S)-5-[3-chloro-5-(2,6-difluorophenyl)-6H-pyrazolo[1,5-a][1,3,5]benzotriazepin-9-yl]-2-oxa-5-azabicyclo[2.2.1]heptane] | < 50
9 | C[C@@H]1CN(c2ccc3c(c2)-n2ncc(Cl)c2N=C(c2c(F)cccc2F)N3)C[C@@H](C)O1 [(2R,6R)-4-(3-chloro-5-(2,6-difluorophenyl)-6H-benzo[f]pyrazolo[1,5-a][1,3,5]triazepin-9-yl)-2,6-dimethylmorpholine] | < 50
10 | C[C@@H]1CN(c2ccc3c(c2)-n2ncc(Cl)c2N=C(c2c(F)cccc2F)N3)C[C@H](C)O1 [(2R,6S)-4-(3-chloro-5-(2,6-difluorophenyl)-6H-benzo[f]pyrazolo[1,5-a][1,3,5]triazepin-9-yl)-2,6-dimethylmorpholine] | 50 to 200
11 | C[C@H]1CN(c2ccc3c(c2)-n2ncc(Cl)c2N=C(c2c(F)cccc2F)N3)C[C@H](C)O1 [(2S,6S)-4-(3-chloro-5-(2,6-difluorophenyl)-6H-benzo[f]pyrazolo[1,5-a][1,3,5]triazepin-9-yl)-2,6-dimethylmorpholine] | < 50
12 | C[C@H]1CN(c2cc3c(cn2)NC(c2c(F)cccc2F)=Nc2c(F)cnn2-3)C[C@H](C)O1 [(2S,6S)-4-(5-(2,6-difluorophenyl)-3-fluoro-6H-pyrazolo[1,5-a]pyrido[3,4-f][1,3,5]triazepin-9-yl)-2,6-dimethylmorpholine] | 50 to 200
13 | C[C@H]1CN(c2cc3c(cn2)NC(c2c(F)cccc2F)=Nc2ccnn2-3)C[C@H](C)O1 [(2S,6S)-4-(5-(2,6-difluorophenyl)-6H-pyrazolo[1,5-a]pyrido[3,4-f][1,3,5]triazepin-9-yl)-2,6-dimethylmorpholine] | < 50
14 | C[C@H]1CN(c2cc3c(cn2)NC(c2c(F)cccc2F)=Nc2c(Cl)cnn2-3)C[C@H](C)O1 [(2S,6S)-4-[5-chloro-8-(2,6-difluorophenyl)-2,3,7,9,12-pentazatricyclo[8.4.0.02,6]tetradeca-1(10),3,5,7,11,13-hexaen-13-yl]-2,6-dimethyl-morpholine] | < 50
15 | C[C@@H]1COCCN1c1ccc2c(c1)-n1ncc(Cl)c1N=C(c1c(F)cccc1F)N2 [(3R)-4-[3-chloro-5-(2,6-difluorophenyl)-6H-pyrazolo[1,5-a][1,3,5]benzotriazepin-9-yl]-3-methyl-morpholine] | < 50
16 | C[C@H]1COCCN1c1ccc2c(c1)-n1ncc(Cl)c1N=C(c1c(F)cccc1F)N2 [(3S)-4-[3-chloro-5-(2,6-difluorophenyl)-6H-pyrazolo[1,5-a][1,3,5]benzotriazepin-9-yl]-3-methyl-morpholine] | < 50
17 | C[C@H]1CN(c2cc3c(cn2)NC(c2c(F)cccc2F)=Nc2c(F)cnn2-3)CCO1 [(S)-4-(5-(2,6-difluorophenyl)-3-fluoro-6H-pyrazolo[1,5-a]pyrido[3,4-f][1,3,5]triazepin-9-yl)-2-methylmorpholine] | < 50
18 | C[C@H]1CN(c2cc3c(cn2)NC(c2c(F)cccc2F)=Nc2ccnn2-3)CCO1 [(S)-4-(5-(2,6-difluorophenyl)-6H-pyrazolo[1,5-a]pyrido[3,4-f][1,3,5]triazepin-9-yl)-2-methylmorpholine] | < 50
19 | CC(C)(O)c1ccc2c(c1)-n1ncc(Cl)c1N=C(c1c(F)cccc1F)N2 [Methyl 2-[3-chloro-5-(2,6-difluorophenyl)-6H-pyrazolo[1,5-a][1,3,5]benzotriazepin-9-yl]propan-2-ol] | 50 to 200
20 | COC(=O)c1ccc2c(c1)-n1ncc(Cl)c1N=C(c1c(F)cccc1F)N2 [Methyl 3-chloro-5-(2,6-difluorophenyl)-6H-pyrazolo[1,5-a][1,3,5]benzotriazepine-9-carboxylate] | < 50
21 | O=C(O)c1ccc2c(c1)-n1ncc(Cl)c1N=C(c1c(F)cccc1F)N2 [Methyl 3-chloro-5-(2,6-difluorophenyl)-6H-pyrazolo[1,5-a][1,3,5]benzotriazepine-9-carboxylic acid] | > 200
22 | COC(=O)c1cnc2c(c1)-n1ncc(Cl)c1N=C(c1c(F)cccc1F)N2 [Methyl 5-chloro-8-(2,6-difluorophenyl)-2,3,7,9,11-pentazatricyclo[8.4.0.02,6]tetradeca-1(10),3,5,7,11,13-hexaene-13-carboxylate] | < 50
23 | CC(C)(C)NC(=O)c1ccc2c(c1)-n1ncc(Cl)c1N=C(c1c(F)cccc1F)N2 [N-(tert-butyl)-3-chloro-5-(2,6-difluorophenyl)-6H-benzo[f]pyrazolo[1,5-a][1,3,5]triazepine-9-carboxamide] | < 50
